According to article PMC9782626, “Copper(II) Complexes of 5–Fluoro–Salicylaldehyde: Synthesis, Characterization, Antioxidant Properties, Interaction with DNA and Serum Albumins” (Molecules, 2022):

Key:
Solubility in solvents = type: physicochemical
[1] = target: T1, bovine serum albumin (BSA) (Bos taurus, UniProt P02769); experiment: Albumin binding by tryptophan fluorescence quenching (BSA); conditions: for ΔΙ/Ιο, quenching of the BSA fluorescence: BSA 3 μM, λex 295 nm; for % relative BSA fluorescence emission intensity I/Io remaining (% of initial): final value, pH 7.0; for BSA-binding constant K: Scatchard equation; for BSA-quenching constant kq: from Stern–Volmer plots, τo 10^-8 s
T1 construct: purchased Sigma–Aldrich Co
Description: Serum albumins are among the important proteins of the circulatory system. Their main role is to carry drugs and other bioactive small molecules through the bloodstream. BSA and HSA are structurally homologous albumins, having two and one tryptophan residues, respectively. The tryptophan residues of both albumins are responsible for the intense fluorescence emission band with λem,max = 342 nm for BSA and 350 nm for HSA, respectively, when their solutions are excited at 295 nm. […] The inner-filter effect was calculated with Equation (S4) and it was found too low to affect the measurements.
When the compounds were added to a solution of the albumins (3 μM), a significant quenching of the BSA (λem = 342 nm) and HSA (λem = 350 nm) fluorescence emission bands was observed (Figure 7) which was more pronounced in the case of BSA (Table 7 and Figure 8). […] The observed quenching may be ascribed to changes in the tryptophan environment of SA resulting from possible denaturation of their secondary structure, induced by the binding of the complexes to the albumins. […]
Io =1+ k τ [Q] =1+ K [Q] […]
S3Albumin -binding studies
In order to investigate if the compounds can bind to carrier proteins like serum albumins, we carried out albumin binding study by tryptophan fluorescence quenching experiments using bo vine serum albumin (BSA, 3 μM) in buffer (containing 15 mM trisodium citrate and 150 mM NaCl at pH 7.0). The quenching of the emission intensity of tryptophan residues of BSA at 343 nm was monitored using the co mpounds as que ncher s with increasing concentration [S4]. The fluo rescence emission spectra of the compounds were also recorded with λex = 295 nm. No fluorescence emission band was recorded and thus it was not related to the compounds . The influence of the inner-filter effect [S6] on the measurements wa s evaluated by equation S4.
Where Icorr = corrected intensity, Imeas = the measured intensity, c = the concentration of the quencher, d = the cuvette (1 cm), ε (λexc ) and ε(λe m) = the ε of the quencher at the excitation and the emission wavelength, respectively, as calculated from the UV-vis spectra of the […]
The Stern-Volmer and Scatchard graphs are used to study the interaction of the compounds with serum albumins. According to Stern-Volmer quenching equation (eq.
S2), where Io = the initial tryptophan fluorescence intensity of SA, I = the tryptophan fluorescence intensity of SA after the addition of the quencher, kq = the quenching […]
constant, KSV = the Stern-Volmer constant, τo = the average lifetime of SA without the quencher, and, tak ing as fluorescence lifet ime (τo) of tryptophan in SA at around 10-8 s [S 4] , KSV (in M -1) can be obtained by the slope of the diagram Io/I versus [compound] (Stern-Volmer plots), and subsequently the quenching (kq, in M -1s-1) may be calculated from eq.
From the Scatchard equation (eq. S5): […]
where n is the number of binding sites per albumin and K is the SA-binding constant (K, in M -1) is calculated from the slope in plots (ΔI/Io)/[complex] versus ΔI/Io and n is given by the ratio of y intercept to the slope [S7].
S1 Kontogiorgis, C.; Hadjipavlou–Lit ina, D. Biological Evaluat ion of Several Coumarin Derivatives Designed as Possible Anti–inflammatory/Antioxidant Agents. J. Enz. Inhib.
S2 Ruch, R.J.; Cheng, C.; Klaunig, J.E. Prevention of cytotoxicity and inhibition of intercellular communication by antioxidant catechins isolated from Chinese green tea.
S3 Wolfe, A.; Shimer, G.; Meehan, T. Polycyclic Aromatic Hydrocarbons Physically Intercalate into Duplex Regions of Denatured DNA. Biochemistry 1987, 26, 6392–6396.
S4 Lakowicz, J.R. Principles of Fluorescence Spectroscopy , 3rd ed.; Plenum Press: New […]
S5 Heller, D.P.; Greenstock, C.L. Fluorescence lifetime analysis of DNA intercalated ethid ium bromide and quench ing by free dye. Biophys. Chem.1994,50, 305–312.
S6 Stella, L.; Capodilupo, A.L.; Bietti, M. A reassessment of the association between […]
azulene and [60]fullerene. […]

CT DNA = experiment: Binding study with CT DNA by UV-vis spectroscopy; design: species or system calf
Experimental: Initially, the UV–vis spectra of complexes 1–5 (2.5 × 10^−5 – 1 × 10^−4 M) were recorded in the presence of incremental amounts of CT DNA (Figure 4), and the changes of the λmax of the bands observed in the spectra of the complexes were monitored as a means to study the interaction between complexes and CT DNA [50] and to calculate the corresponding DNA-binding constants (Kb). As observed, in the UV–vis spectra of the complexes, at least two bands were observed: band I in the range 314–339 nm and band II in the region 380–428 nm. […] These features indicate the interaction of the complexes with CT DNA [51], but may not provide sufficient information to reveal the possible interaction mode. Therefore, for the elucidation of the CT DNA interaction mode, further experiments involving DNA-viscosity measurements and competitive studies with EB were performed. […]
S2Binding studies with CT DNA
The interaction of the compounds with CT DNA was studied by UV-vis spectroscopy, viscosity measurements a nd via competit ive stud ie s with EB by fl uorescence […]
S2.1 Binding study with CT DNA by UV -vis spectroscopy
The interaction of the compounds with CT DNA has been studied by UV-vis spectroscopy in order to investigate the possible binding modes to CT DNA and to calculate the DNA-binding constants (Kb). The Kb constants (in M-1) were determined by the Wolfe-Shimer equation (eq. S1) [S3] and the plots [DNA]/(εA-εf) versus [DNA] using the UV-vis spectra of the compounds (20 -100 μM) recorded for a constant concentration with increasing concentrations of CT DNA for diverse [complex]/[DNA] mixing ratios (= r ).
Control experiments with DMSO were performed and no changes in the spectra of CT DNA were observed. […]
[DNA] = [DNA] + 1 (eq. S1) […]
where [DNA] is the concentration of DNA in base pa irs, εA = Aobsd/[compound ], εf = the extinction coefficient for the free compound and ε b = the extinction coefficient for the compound in the fully bound form. Kb is given by the ratio of slope to the y intercept in plots [DNA]/(εA-εf) versus[DNA]. […]

[2] = first UV band listed in the cell (295–334 nm)
[3] = second UV band listed in the cell (330–421 nm)

T1 sequence (P02769 25-607): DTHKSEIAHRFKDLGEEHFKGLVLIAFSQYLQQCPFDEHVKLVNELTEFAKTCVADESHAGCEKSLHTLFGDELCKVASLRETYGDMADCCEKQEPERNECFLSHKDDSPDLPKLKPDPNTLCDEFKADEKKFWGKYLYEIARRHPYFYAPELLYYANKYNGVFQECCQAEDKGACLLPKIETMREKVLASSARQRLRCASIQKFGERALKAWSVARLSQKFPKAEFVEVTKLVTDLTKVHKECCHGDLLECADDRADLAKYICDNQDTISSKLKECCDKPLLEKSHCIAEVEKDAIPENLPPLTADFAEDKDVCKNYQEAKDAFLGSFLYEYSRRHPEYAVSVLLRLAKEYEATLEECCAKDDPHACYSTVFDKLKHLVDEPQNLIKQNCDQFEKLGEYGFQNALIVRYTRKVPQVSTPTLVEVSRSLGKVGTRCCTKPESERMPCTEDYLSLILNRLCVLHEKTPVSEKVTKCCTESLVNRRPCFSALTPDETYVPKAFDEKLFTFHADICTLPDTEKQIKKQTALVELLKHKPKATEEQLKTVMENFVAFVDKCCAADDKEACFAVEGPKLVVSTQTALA

Row | SMILES | Solubility in DMSO and DMF (Solubility in solvents) | Solubility in MeOH (Solubility in solvents) | ΔΙ/Ιο, quenching of the BSA fluorescence [1] [%] | % relative BSA fluorescence emission intensity I/Io remaining (% of initial) [1] [%] | BSA-binding constant K [1] | BSA-quenching constant kq [1] | ΔA/Aο, percentage of hyper-/hypo-chromism upon addition of CT DNA (CT DNA; [2]) [%] | ΔA/Aο, percentage of hyper-/hypo-chromism upon addition of CT DNA (CT DNA; [3]) | ΔA/Aο, percentage of hyper-/hypo-chromism upon addition of CT DNA (CT DNA; third UV band listed in the cell (405 nm))
1 | O=Cc1cc(F)ccc1[O-].[Cl-].[Cu+2].c1ccc(Nc2ccccn2)nc1 [Complex 2, [Cu(5–F–salo)(bipyam)Cl]] | soluble | partially soluble | 54.0 | 46.0 | 3.15 (±0.18) × 10^4 M^−1 | 6.49 (±0.14) × 10^12 M^−1 s^−1 | −12 | > +50% | –
2 | CO.Cc1ccc2ccc3ccc(C)nc3c2n1.O=Cc1cc(F)ccc1[O-].[Cl-].[Cu+2] [Complex 3, [Cu(5–F–salo)(neoc)Cl].CH3OH] | soluble | partially soluble | 84.3 | 15.7 | 2.51 (±0.10) × 10^5 M^−1 | 2.75 (±0.10) × 10^13 M^−1 s^−1 | −41 | +34% | –
3 | O=Cc1cc(F)ccc1[O-].O=[N+]([O-])[O-].[Cu+2].c1ccc(-c2ccccn2)nc1 [Complex 5, [Cu(5–F–salo)(bipy)(NO3)]] | – | – | 68.3 | – | 3.23 (±0.12) × 10^5 M^−1 | 1.87 (±0.09) × 10^13 M^−1 s^−1 | −72 | −28% | –
4 | O=Cc1cc(F)ccc1[O-].O=Cc1cc(F)ccc1[O-].[Cu+2] [Complex 1, [Cu(5–F–salo)2]] | soluble | – | 62.5 | 37.5 | 4.05 (±0.02) × 10^4 M^−1 | 9.38 (±0.28) × 10^12 M^−1 s^−1 | −34 | −20% | –
5 | O=Cc1cc(F)ccc1[O-].O=[N+]([O-])[O-].[Cu+2].c1cnc2c(c1)ccc1cccnc12 [Complex 4, [Cu(5–F–salo)(phen)(NO3)]] | soluble | – | 75.3 | 24.7 | 2.35 (±0.10) × 10^5 M^−1 | 1.62 (±0.06) × 10^13 M^−1 s^−1 | −38 | −29% | +44%
